Results on ten compounds are retold here after article PMC8623047, “Novel Antioxidants and α-Glycosidase and Protein Tyrosine Phosphatase 1B Inhibitors from an Endophytic Fungus Penicillium brefeldianum F4a” (Journal of Fungi, 2021).

Structures are written as SMILES.

Assay [1] in a line: DPPH radical scavenging assay. Particulars: mean ± SD, n = 3; 30 min, 517 nm. As for the experimental part:
The DPPH free radicals scavenging assay was tested according to the previously reported methods. First, 100 μL of sample at different concentrations in ethanol (the blank control used 100 μL of ethanol instead of the sample) was added to 96 wells, followed by 100 μL of 0.15 mM DPPH. […] L-Ascorbic acid was used as the positive control.
For orientation: Loss of DPPH colour is used to gauge radical scavenging.

The nature of assay [2]: ABTS radical scavenging assay. To be noted: mean ± SD, n = 3; 6 min, 734 nm. As for the experimental part:
The ABTS free radical scavenging assay was tested according to the previously reported methods. […] The mixture was incubated in darkness at room temperature for 12 h before use. […] Then, 100 μL of the sample at various concentrations in ethanol (the blank control used 100 μL of ethanol instead of the sample) was added to 3.0 mL of diluted ABTS^•+ solution and mixed vigorously. […] L-Ascorbic acid was used as the positive control.

Assay [3] addresses T1, PTP1B (Homo sapiens, UniProt P18031).
T1 sequence (P18031 1-435): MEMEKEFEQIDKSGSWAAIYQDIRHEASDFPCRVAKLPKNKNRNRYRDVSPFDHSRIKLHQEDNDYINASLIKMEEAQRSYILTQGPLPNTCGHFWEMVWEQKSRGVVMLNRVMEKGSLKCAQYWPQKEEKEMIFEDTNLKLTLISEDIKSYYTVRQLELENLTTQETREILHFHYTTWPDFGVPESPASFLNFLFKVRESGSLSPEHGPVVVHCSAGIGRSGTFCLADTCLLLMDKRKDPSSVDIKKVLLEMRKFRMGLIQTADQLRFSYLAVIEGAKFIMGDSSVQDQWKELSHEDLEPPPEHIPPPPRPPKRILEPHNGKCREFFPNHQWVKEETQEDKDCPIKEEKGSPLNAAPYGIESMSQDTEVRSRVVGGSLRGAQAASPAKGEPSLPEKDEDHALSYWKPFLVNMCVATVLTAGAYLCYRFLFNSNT
Put plainly: PTP1B inhibitory assay (p-NPP substrate). Particulars: mean ± SD, n = 3; sample concentration achieving 50% of activity. The class given is biochemical. As for the experimental part: The PTP1B inhibitory activity was established according to the previously reported methods. The reagent para-nitrophenyl phosphate (p-NPP) was used as a substrate for PTP1B. Then, 81 μL enzyme in buffer (pH 7.5), including EDTA (1 mM), Tris-HCl (25 mM), dithiothreitol (DTT) (1 mM), β-mercaptoethanol (2 mM), and 10 μL of sample at various concentrations in DMSO (the blank control used 10 μL of DMSO instead of the sample), was incubated in 96-well plates at 37 °C for 10 min. Then, 4 μL p-NPP (10 mM) in buffer was added and incubated at 37 °C for 30 min. Next, 5 μL of 2 M NaOH solution was added to terminate the reaction. Then, the absorbance was determined at 405 nm wavelength.

For assay [4] the following is noted: previous studies; cited from earlier work.

The term EC50 denotes the midpoint of the concentration-response curve. Lower therefore signals higher potency in that assay. Regarding `COc1cc(O)cc(C)c1Cc1oc(C[C@@H](C)O)cc1C(=O)O` [Compound 1, peniorcinol A], the figures for the EC50 in assay [1], in assay [2] and in assay [3] were over 100 µM, 21.9 ± 1.06 µM and over 50 µM, respectively.

In the case of `COc1cc(O)cc(C)c1Cc1oc(C)cc1C(=O)O` [Compound 2, peniorcinol B], the EC50 is over 100 µM in assay [1], 28.2 ± 2.87 µM in assay [2] and over 50 µM in assay [3].

Turning to `C=C1C=CC(=O)[C@]1(CO)Cc1c(C)cc(O)cc1OC` [Compound 3, peniorcinol C], the EC50 is over 100 µM in assay [1], 32.7 ± 3.86 µM in assay [2] and over 50 µM in assay [3].

For `C[C@]1(O)Cc2oc3c(C(=O)O)c(O)c(O)cc3c(=O)c2CO1` [Compound 4, penialidin A], the EC50 in assay [1] is over 100 µM; in assay [2], 14.5 ± 0.46 µM; in assay [3] it was over 50 µM. Besides, the “DPPH• scavenging activity IC50” value in assay [4] is 156.38 µg/mL.

Regarding `C[C@]1(O)Cc2oc3cc(O)c(O)cc3c(=O)c2CO1` [Compound 5, penialidin F], the EC50 is 28.4 ± 3.16 µM in assay [1], 7.61 ± 0.46 µM in assay [2] and over 50 µM in assay [3].

Turning to `CC1=Cc2oc3cc(O)c(O)cc3c(=O)c2CO1` [Compound 6, myxotrichin C], the EC50 in assay [1] is 30.1 ± 2.83 µM; in assay [2], 15 ± 2.57 µM; in assay [3] it was over 50 µM.

In assay [3], `Cc1cc2nc3c(=O)[nH]c(=O)nc-3n(C[C@H](O)[C@H](O)[C@H](O)CO)c2cc1C` [Compound 7, riboflavin] yielded a concentration for a half-maximal effect (EC50) of 8.87 ± 0.91 µM.

`O=C(O)Cc1c[nH]c2ccccc12` [Compound 8, indole-3-acetic acid] showed an EC50 in assay [3] of 11.7 ± 1.03 µM.

As to `COc1cc(O)cc(C)c1CC(=O)O` [Compound 9, 2-(4-hydroxy-2-methoxy-6-methylphenyl) acetic acid], the concentration for a half-maximal effect (EC50) in assay [1] was over 100 µM; in assay [2], 30 ± 4.17 µM; in assay [3] it was over 50 µM.

In the case of `O=C1O[C@H]([C@@H](O)CO)C(O)=C1O` [L-Ascorbic acid, reference compound], the EC50 amounted to 6.12 ± 0.17 µM in assay [1] and 18.8 ± 3.39 µM in assay [2].
